Values belong to the sequence of their own block, whether it stands above or below them.
Molecular target: T1, MyD88^TIR (Homo sapiens, UniProt Q99836)
T1 construct: MyD88 (residues 148–296); 6xHis; made in house; host or cells: E. coli BL21 (DE3)
Experiment: T‐Surf phage library (P8 and P3) selection against MyD88^TIR, four rounds, NGS read counts
Assay type: binding
Details: for P8_MyD88 Rank (after) / P8_MyD88 Rank (before): P8 library; for P3_MyD88 Rank (after) / P3_MyD88 Rank (before): P3 library; for Population: 4th round of selection against MyD88 TIR, share of NGS reads
Procedure: T‐Surf libraries were screened against the immobilized TIR domains of two major human TLR adaptor proteins, MAL^TIR and MyD88^TIR, allowing cross‐species selection of TIR‐binding motifs with 190 946 TIR‐derived peptides in a single binding assay (Scheme 1). Enriched phage pools from the fourth round of selection were analyzed using NGS after barcoding the peptide‐coding regions of the phage pools.
Phage display screening was performed by coating two wells of a 96‐well plate (Maxisorp, Thermo Fisher Scientific) with 100 µL of 5 µg mL^−1 TIR domains overnight; then, the coated wells were blocked with 200 µL of blocking buffer (0.2% BSA in PBS) and set aside for 1 h at 4 °C with gentle shaking. Next, 100 µL of the phage library was added to the wells and incubated for 1 h at room temperature (RT; 20 – 22 °C) with gentle shaking. The plate was washed four times with PBS containing 0.5% Tween‐20; the bound phages were eluted by adding 100 µL of 100 mM HCl to each well. The elute was neutralized with 10 µL of 1.0 M Tris‐HCl (pH 11.0). E. coli TG1 cells were grown to the log phase (A600 = ≈0.6), and 1 mL of the culture was incubated with 100 µL of the eluted phages for 30 min at 37 °C, with shaking at 200 rpm. Next, 1 µL of M13KO7 helper phages was added, followed by incubation for 45 min at 37 °C, with shaking. Subsequently, the cells were transferred to 25 mL of 2× yeast extract tryptone/carbenicillin/kanamycin medium and incubated overnight at 37 °C with shaking at 200 rpm. The amplified phages were precipitated with 20% PEG‐8000/2.5 M NaCl to be used for the next round of selection.
The naïve T‐Surf libraries in P8 and P3 and the enriched phage pools after four rounds were barcoded for NGS as previously described.^[ [59] ^] Briefly, 5 µL of the phage pool was used as a template for 20 cycles of a 50 µL PCR reaction using […] each of forward and reverse barcoded primers and PrimeSTAR Max DNA Polymerase. The PCR products were purified using Expin Gel SV (GeneAll). The NGS samples were quantified using qPCR, following the qPCR Quantification Protocol Guide (KAPA Library Quantification kits for Illumina Sequencing Platform), and qualified using the TapeStation High Sensitivity D1000 ScreenTape (Agilent Technologies). The indexed libraries were further sequenced by Macrogen (Seoul, Republic of Korea) using the NovaSeq platform (Illumina) with 100 bp paired‐end reads. The reads were demultiplexed by barcodes and filtered for an average Phred quality score of at least 30, followed by trimming the flanking consensus sequences using Cutadapt (version 2.3). Peptide sequence populations were analyzed according to the read counts.

[1] = P8_MyD88: rank by count after grouping
[2] = P8_MyD88: rank by count before grouping
[3] = selection against MyD88 TIR, rank by count after grouping
[4] = selection against MyD88 TIR, rank by count before grouping
[5] = selection against MyD88, rank after grouping
[6] = selection against MyD88, rank before grouping
[7] = selection against MyD88, rank by count after grouping
[8] = selection against MyD88, rank by count before grouping
[9] = P3_MyD88: rank by count after grouping
[10] = P3_MyD88: rank by count before grouping
[11] = 4R selection against MyD88, rank after grouping
[12] = 4R selection against MyD88, rank before grouping
[13] = P8_MyD88 pool: P8 T-Surf phage library
[14] = P8_MyD88: rank by NGS read count after grouping
[15] = P8_MyD88: rank by NGS read count before grouping

T1 sequence (Q99836 148-296): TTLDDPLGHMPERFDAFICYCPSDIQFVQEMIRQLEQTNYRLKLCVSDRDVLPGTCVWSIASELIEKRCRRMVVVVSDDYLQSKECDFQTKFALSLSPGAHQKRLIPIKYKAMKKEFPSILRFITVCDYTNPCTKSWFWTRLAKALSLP

- Rank (after) [1]: 398
- Rank (before) [2]: 1024
Sequence: AEFWERLRMTVLETME

- P8_MyD88 Rank (after) [3]: 226
- P8_MyD88 Rank (before) [4]: 385
Sequence: AFSHWALVELLEAIEQ

- P3_MyD88 Rank (after) [5]: 484
- P3_MyD88 Rank (before) [6]: 1942
Sequence: AGDKGTDKIQTPLKNA

- P8_MyD88 Rank (after) [3]: 205
- P8_MyD88 Rank (before) [4]: 304
Sequence: AHDELWVLRYLLPTLE

- P3_MyD88 Rank (after) [3]: 267
- P3_MyD88 Rank (before) [4]: 1950
Sequence: ALLKKLDSGFSEEKLL

- Rank (after) [1]: 431
- Rank (before) [2]: 2322
Sequence: APQDLEWFYERLVSLIL

- P3_MyD88 Rank (after) [7]: 744
- P3_MyD88 Rank (before) [8]: 1964
Sequence: ARFKDMIINKWRTALKERLP

- P8_MyD88 Rank (after) [7]: 683
- P8_MyD88 Rank (before) [8]: 2333
Sequence: ASSPWALYELVEILTA

- Rank (after) [1]: 189
- Rank (before) [2]: 243
Sequence: ASSSFALDQLSYFLSL

- Population (P3_MyD88 pool: P3 T-Surf phage library): 0.00262%
Sequence: AVAHEISKKMKIFATI

- P3_MyD88 Rank (after) [3]: 270
- P3_MyD88 Rank (before) [4]: 1888
Sequence: AVAHEISNKMKIFATI

- Rank (after) [9]: 157
- Rank (before) [10]: 1891
Sequence: AVDIETEKIQTPLKNA

- P3_MyD88 Rank (after) [3]: 242
- P3_MyD88 Rank (before) [4]: 924
Sequence: AVDKETDKIQTAEKC

- Rank (after) [9]: 115
- Rank (before) [10]: 601
Sequence: AVDKETDKIQTPLEM

- Rank (after) [9]: 390
- Rank (before) [10]: 1919
Sequence: AVDKETDKIQTPLKAQ

- Rank (after) [9]: 430
- Rank (before) [10]: 1896
Sequence: AVDKGIDKIQTPLKNA

- Rank (after) [9]: 468
- Rank (before) [10]: 1938
Sequence: AVDKKTDKIQTPRKNA

- P3_MyD88 Rank (after) [3]: 231
- P3_MyD88 Rank (before) [4]: 1895
Sequence: AVDNETDKIQTPLKNE

- Rank (after) [9]: 173
- Rank (before) [10]: 1939
Sequence: AVEKETDKIQTPPKNA

- Rank (after) [9]: 177
- Rank (before) [10]: 1886
Sequence: AVGKETNKIQTPLKNA

- Rank (after) [9]: 466
- Rank (before) [10]: 1885
Sequence: AVVRETQKIQPQRKNA

- P3_MyD88 Rank (after) [11]: 595
- P3_MyD88 Rank (before) [12]: 1975
Sequence: AWIREQLRTALKERPP

- P8_MyD88 Rank (after) [3]: 254
- P8_MyD88 Rank (before) [4]: 448
Sequence: AWIWGWREALVYIGGI

- Rank (after) [1]: 168
- Rank (before) [2]: 189
- Population [13]: 0.00655%
Sequence: AWTDDPVGQLFFWESL

- P8_MyD88 Rank (after) [11]: 672
- P8_MyD88 Rank (before) [12]: 2318
Sequence: AWVGDYLLPNLEGPAG

- P8_MyD88 Rank (after) [11]: 668
- P8_MyD88 Rank (before) [12]: 2317
Sequence: AWVWEYLLPNLVGPAG

- Rank (after) [1]: 129
- Rank (before) [2]: 140
- Population [13]: 0.0116%
Sequence: AYILNFIKGNVMFEFL

- P8_MyD88 Rank (after) [3]: 214
- P8_MyD88 Rank (before) [4]: 303
Sequence: AYSPWALDELVKIIEA

- P8_MyD88 Rank (after) [7]: 725
- P8_MyD88 Rank (before) [8]: 1345
Sequence: CALCELLQILHARGLF

- P8_MyD88 Rank (after) [7]: 724
- P8_MyD88 Rank (before) [8]: 1346
Sequence: CALDELLHILHARELF

- Rank (after) [14]: 876
- Rank (before) [15]: 1349
Sequence: CARDELLQILHARELF

- Rank (after) [14]: 877
- Rank (before) [15]: 1353
Sequence: CLLLSVFQTLFARRTE

- P8_MyD88 Rank (after) [5]: 576
- P8_MyD88 Rank (before) [6]: 2581
Sequence: DEAWFLTKLRISLEHL

- Rank (after) [14]: 993
- Rank (before) [15]: 2369
Sequence: DFLKWDNEAIMIKKIA

- Rank (after) [1]: 148
- Rank (before) [2]: 159
- Population [13]: 0.00925%
Sequence: DFLLTILEAMKTKNQL

- Rank (after) [1]: 457
- Rank (before) [2]: 2364
Sequence: DFLNWFIAPNSTVIEN

- P8_MyD88 Rank (after) [11]: 622
- P8_MyD88 Rank (before) [12]: 2352
Sequence: DFLNWFYERLVSLFL

- Rank (after) [14]: 896
- Rank (before) [15]: 2347
Sequence: DFLSHLIKRLAVCTS

- Rank (after) [1]: 465
- Rank (before) [2]: 2370
Sequence: DFRSHLIETFGRMFIN

- Rank (after) [14]: 946
- Rank (before) [15]: 2377
Sequence: DFSHFWLFEAGGDAD

- Rank (after) [1]: 387
- Rank (before) [2]: 2381
Sequence: DFSHFWLFEARGDA
